What follows are compounds tested against T1, histamine-3 receptor (Rattus norvegicus, UniProt Q9QYN8) (assay: Histamine-3 receptor binding, (3H)-N-α-methylhistamine displacement in rat cortical membranes). Conditions: male Sprague-Dawley rat brain cortical membranes; (3H)-N-α-methylhistamine ~0.6 nM; 30 minutes at 25° C.; Cheng-Prusoff.
T1 construct: from tissue; host or cells: male Sprague-Dawley rat brain cortex membranes
Description: Briefly, male Sprague-Dawley rat brain cortices were homogenized (1 g tissue/10 mL buffer) in 50 mM Tris-HCl/5 mM EDTA containing protease inhibitor cocktail (Calbiochem) using a polytron set at 20,500 rpm. Homogenates were centrifuged for 20 minutes at 40,000×g. The supernatant was decanted, and pellets were weighed. The pellet was resuspended by polytron homogenization in 40 mL 50 mM Tris-HCl/5 mM EDTA with protease inhibitors and centrifuged for 20 minutes at 40,000×g. […] Test compounds were dissolved in DMSO to provide 20 mM solution, serially diluted and then added to the incubation mixtures prior to initiating the incubation assay by addition of the membranes. Thioperamide (3 μM) was used to determine nonspecific binding. Binding incubations were conducted for 30 minutes at 25° C. and terminated by addition of 2 mL of ice cold 50 mM Tris-HCl (pH 7.7) and filtration through 0.3% polyethylenimine-soaked Unifilter plates (Packard). These filters were washed 4 additional times with 2 mL of ice-cold 50 mM Tris-HCl and dried for 1 hour. Radioactivity was determined using liquid scintillation counting techniques. Results were analyzed by Hill transformation and Ki values were determined using the Cheng-Prusoff equation.

T1 sequence (Q9QYN8 whole entry): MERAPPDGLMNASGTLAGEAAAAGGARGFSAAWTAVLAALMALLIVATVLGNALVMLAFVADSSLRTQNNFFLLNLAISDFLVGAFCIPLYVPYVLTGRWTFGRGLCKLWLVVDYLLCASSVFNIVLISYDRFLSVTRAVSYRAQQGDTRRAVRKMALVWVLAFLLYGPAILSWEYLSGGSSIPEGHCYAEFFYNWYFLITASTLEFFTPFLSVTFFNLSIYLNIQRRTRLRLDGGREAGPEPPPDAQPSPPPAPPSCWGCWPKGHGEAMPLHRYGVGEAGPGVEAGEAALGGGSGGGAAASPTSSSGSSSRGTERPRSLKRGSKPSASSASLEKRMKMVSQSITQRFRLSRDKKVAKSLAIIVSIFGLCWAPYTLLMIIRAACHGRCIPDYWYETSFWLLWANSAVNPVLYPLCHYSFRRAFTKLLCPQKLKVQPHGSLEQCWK

Compound | Ki [nM]
1-(4-{3-[(3R)-3-aminopyrrolidinyl]propoxy}phenyl)-1-propanone [Example 7] | 31
CC(=O)c1ccc(OCCCN2CC[C@@H](NC(=O)C3CC3)C2)cc1 [Example 1, N-{(3R)-1-[3-(4-acetylphenoxy)propyl]pyrrolidinyl}cyclopropanecarboxamide] | 105
CC(=O)c1ccc(OCCCN2CC[C@@H](NC(=O)c3csc(-c4cccnc4)n3)C2)cc1 [Example 4, N-{(3R)-1-[3-(4-acetylphenoxy)propyl]pyrrolidinyl}-2-(3-pyridinyl)-1,3-thiazole-4-carboxamide] | 55
CC(=O)c1ccc(OCCCN2CC[C@@H](NS(=O)(=O)c3ccc(C#N)cc3)C2)cc1 [Example 5, N-{(3R)-1-[3-(4-acetylphenoxy)propyl]pyrrolidinyl}-4-cyanobenzenesulfonamide] | 6.3
CC(=O)c1ccc(OCCCN2CC[C@@H](NS(=O)(=O)C(C)C)C2)cc1 [Example 6, N-{(3R)-1-[3-(4-acetylphenoxy)propyl]pyrrolidinyl}-2-propanesulfonamide] | 95
CC(=O)c1ccc(OCCCN2CC[C@@H](N3C(=O)N[C@@H](C)C3=O)C2)cc1 [Example 9, (5S)-3-{(3R)-1-[3-(4-acetylphenoxy)propyl]pyrrolidinyl}-5-methyl-2,4-imidazolidinedione] | 675
N#Cc1ccc(S(=O)(=O)N[C@@H]2CCN(CCCOc3ccc(C(=O)C4CC4)cc3)C2)cc1 [Example 11, 4-cyano-N-((3R)-1-{3-[4-(cyclopropylcarbonyl)phenoxy]propyl}pyrrolidinyl)benzenesulfonamide] | 4
CC(C)S(=O)(=O)N[C@@H]1CCN(CCCOc2ccc(C(=O)C3CC3)cc2)C1 [Example 12, N-((3R)-1-{3-[4-(cyclopropylcarbonyl)phenoxy]propyl}pyrrolidinyl)-2-propanesulfonamide] | 71
O=C(N[C@@H]1CCN(CCCOc2ccc(C(=O)C3CC3)cc2)C1)c1csc(-c2cccnc2)n1 [Example 13, N-((3R)-1-{3-[4-(cyclopropylcarbonyl)phenoxy]propyl}pyrrolidinyl)-2-(3-pyridinyl)-1,3-thiazole-4-carboxamide] | 50
N#Cc1ccc(-c2ccc(OCCCN3CC[C@@H](NS(=O)(=O)c4ccccc4)C3)cc2)cc1 [Example 15] | 7.3
N#Cc1ccc(-c2ccc(OCCCN3CC[C@@H](NS(=O)(=O)c4ccc(Br)cc4)C3)cc2)cc1 [Example 16, 4-bromo-N-((3R)-1-{3-[(4′-cyano[1,1′-biphenyl]-4-yl)oxy]propyl}pyrrolidinyl)benzenesulfonamide] | 67
CC(=O)Nc1ccc(S(=O)(=O)N[C@@H]2CCN(CCCOc3ccc(-c4ccc(C#N)cc4)cc3)C2)cc1 [Example 19, N-(4-{[((3R)-1-{3-[(4′-cyano[1,1′-biphenyl]-4-yl)oxy]propyl}pyrrolidinyl)amino]sulfonyl}phenyl)acetamide] | 3.8
COc1ccc(S(=O)(=O)N[C@@H]2CCN(CCCOc3ccc(-c4ccc(C#N)cc4)cc3)C2)cc1 [Example 20] | 12
N#Cc1ccc(-c2ccc(OCCCN3CC[C@@H](NS(=O)(=O)c4ccc(C(F)(F)F)cc4)C3)cc2)cc1 [Example 23] | 33
Cc1ccccc1S(=O)(=O)N[C@@H]1CCN(CCCOc2ccc(-c3ccc(C#N)cc3)cc2)C1 [Example 25] | 30
N#Cc1ccc(-c2ccc(OCCCN3CC[C@@H](NS(=O)(=O)c4ccc(F)c(Cl)c4)C3)cc2)cc1 [Example 26, 3-chloro-N-((3R)-1-{3-[(4′-cyano[1,1′-biphenyl]-4-yl)oxy]propyl}pyrrolidinyl)-4-fluorobenzenesulfonamide] | 57
CCc1ccc(S(=O)(=O)N[C@@H]2CCN(CCCOc3ccc(-c4ccc(C#N)cc4)cc3)C2)cc1 [Example 27] | 18
N#Cc1ccc(-c2ccc(OCCCN3CC[C@@H](NS(=O)(=O)c4ccccc4F)C3)cc2)cc1 [Example 29] | 5.9
N#Cc1ccc(-c2ccc(OCCCN3CC[C@@H](NS(=O)(=O)c4ccccc4Cl)C3)cc2)cc1 [Example 30, 2-chloro-N-((3R)-1-{3-[(4′-cyano[1,1′-biphenyl]-4-yl)oxy]propyl}pyrrolidinyl)benzenesulfonamide] | 10
N#Cc1ccc(-c2ccc(OCCCN3CC[C@@H](NS(=O)(=O)c4cc(Cl)cc(Cl)c4)C3)cc2)cc1 [Example 32, 3,5-dichloro-N-((3R)-1-{3-[(4′-cyano[1,1′-biphenyl]-4-yl)oxy]propyl}pyrrolidinyl)benzenesulfonamide] | 99
Cc1c(S(=O)(=O)N[C@@H]2CCN(CCCOc3ccc(-c4ccc(C#N)cc4)cc3)C2)sc2ccc(Cl)cc12 [Example 37, 5-chloro-N-((3R)-1-{3-[(4′-cyano[1,1′-biphenyl]-4-yl)oxy]propyl}pyrrolidinyl)-3-methyl-1-benzothiophene-2-sulfonamide] | 349
N#Cc1ccc(-c2ccc(OCCCN3CC[C@@H](NS(=O)(=O)c4cc(C(F)(F)F)cc(C(F)(F)F)c4)C3)cc2)cc1 [Example 38] | 132
CC(=O)Nc1nc(C)c(S(=O)(=O)N[C@@H]2CCN(CCCOc3ccc(-c4ccc(C#N)cc4)cc3)C2)s1 [Example 39, N-(5-{[((3R)-1-{3-[(4′-cyano[1,1′-biphenyl]-4-yl)oxy]propyl}pyrrolidinyl)amino]sulfonyl}-4-methyl-1,3-thiazol-2-yl)acetamide] | 7.6
N#Cc1ccc(-c2ccc(OCCCN3CC[C@@H](NS(=O)(=O)c4cccc5cccnc45)C3)cc2)cc1 [Example 40] | 51
CCCCOc1ccc(S(=O)(=O)N[C@@H]2CCN(CCCOc3ccc(-c4ccc(C#N)cc4)cc3)C2)cc1 [Example 41, 4-butoxy-N-((3R)-1-{3-[(4′-cyano[1,1′-biphenyl]-4-yl)oxy]propyl}pyrrolidinyl)benzenesulfonamide] | 48
COc1ccc(S(=O)(=O)N[C@@H]2CCN(CCCOc3ccc(-c4ccc(C#N)cc4)cc3)C2)cc1OC [Example 42] | 8.8
Cc1ccc(S(=O)(=O)N[C@@H]2CCN(CCCOc3ccc(-c4ccc(C#N)cc4)cc3)C2)cc1Cl [Example 43, 3-chloro-N-((3R)-1-{3-[(4′-cyano[1,1′-biphenyl]-4-yl)oxy]propyl}pyrrolidinyl)-4-methylbenzenesulfonamide] | 37
N#Cc1ccc(-c2ccc(OCCCN3CC[C@@H](NS(=O)(=O)C=Cc4ccccc4)C3)cc2)cc1 [Example 44] | 52

Further compounds by falling Ki, results first:

Ki [nM] | Compound
626 | CC(=O)c1ccc(OCCCN2CC[C@@H](N3C(=O)N[C@H](C(C)C)C3=O)C2)cc1 [Example 10, (5R)-3-{(3R)-1-[3-(4-acetylphenoxy)propyl]pyrrolidinyl}-5-isopropyl-2,4-imidazolidinedione]
68 | CC(=O)c1ccc(OCCCN2CC[C@@H](NC(=O)CSc3nccc(C)n3)C2)cc1 [Example 2, N-{(3R)-1-[3-(4-acetylphenoxy)propyl]pyrrolidinyl}-2-[(4-methyl-2-pyrimidinyl)sulfanyl]acetamide]
43 | COc1ccc(OC)c(S(=O)(=O)N[C@@H]2CCN(CCCOc3ccc(-c4ccc(C#N)cc4)cc3)C2)c1 [Example 24]
40 | CC(=O)c1ccc(OCCCN2CC[C@@H](NC(=O)c3ccc(C#N)cc3)C2)cc1 [Example 14, N-{(3R)-1-[3-(4-acetylphenoxy)propyl]pyrrolidinyl}-4-cyanobenzamide]
30 | N#Cc1ccc(-c2ccc(OCCCN3CC[C@@H](NS(=O)(=O)c4cccc(Cl)c4)C3)cc2)cc1 [Example 31, 3-chloro-N-((3R)-1-{3-[(4′-cyano[1,1′-biphenyl]-4-yl)oxy]propyl}pyrrolidinyl)benzenesulfonamide]
29 | N#Cc1ccc(-c2ccc(OCCCN3CC[C@@H](NS(=O)(=O)c4ccc(Cl)cc4)C3)cc2)cc1 [Example 18, 4-chloro-N-((3R)-1-{3-[(4′-cyano[1,1′-biphenyl]-4-yl)oxy]propyl}pyrrolidinyl)benzenesulfonamide]
22 | CC(C)(C)c1ccc(S(=O)(=O)N[C@@H]2CCN(CCCOc3ccc(-c4ccc(C#N)cc4)cc3)C2)cc1 [Example 21, 4-tert-butyl-N-((3R)-1-{3-[(4′-cyano[1,1′-biphenyl]-4-yl)oxy]propyl}pyrrolidinyl)benzenesulfonamide]
16 | CC(C)c1ccc(S(=O)(=O)N[C@@H]2CCN(CCCOc3ccc(-c4ccc(C#N)cc4)cc3)C2)cc1 [Example 28]
16 | N#Cc1ccc(-c2ccc(OCCCN3CC[C@@H](NS(=O)(=O)c4ccc(C#N)cc4)C3)cc2)cc1 [Example 33, 4-cyano-N-((3R)-1-{3-[(4′-cyano[1,1′-biphenyl]-4-yl)oxy]propyl}pyrrolidinyl)benzenesulfonamide]
13 | N#Cc1ccc(-c2ccc(OCCCN3CC[C@@H](NS(=O)(=O)c4ccc(F)cc4)C3)cc2)cc1 [Example 17]
13 | Cn1cnc(S(=O)(=O)N[C@@H]2CCN(CCCOc3ccc(-c4ccc(C#N)cc4)cc3)C2)c1 [Example 35]
12 | Cc1ccc(S(=O)(=O)N[C@@H]2CCN(CCCOc3ccc(-c4ccc(C#N)cc4)cc3)C2)cc1 [Example 22]
12 | N#Cc1ccc(-c2ccc(OCCCN3CC[C@@H](NS(=O)(=O)c4cccs4)C3)cc2)cc1 [Example 36]
11 | N#Cc1ccc(-c2ccc(OCCCN3CC[C@@H](NS(=O)(=O)c4cccc(C#N)c4)C3)cc2)cc1 [Example 34, 3-cyano-N-((3R)-1-{3-[(4′-cyano[1,1′-biphenyl]-4-yl)oxy]propyl}pyrrolidinyl)benzenesulfonamide]
